Measurements taken from US20070167452A1, “Therapeutic amide derivatives” (PFIZER, INC., priority 2004, published 2007).
Read-outs that look alike come from different tables or passages of the source.

Experiments:
HERG potassium channel = HERG potassium channel (Homo sapiens, UniProt Q12809); test: Inhibition at HERG potassium channel (prior-art compound); conditions: background statement on prior-art compound of WO 0208928
NR2B receptor = molecular target: T1, NR2B receptor (Rattus norvegicus, UniProt P35439+Q00960); test: NR2B Binding Assay; conditions: forebrain P2 membranes of male CD rats; 5 nM [3H] NR2B ligand
T1 construct: Membranes were prepared by homogenization of forebrain of male CD rats; from tissue; host or cells: forebrain of male CD rats (P2 membrane)
Experimental: The activity of the cycloalkylene amide compounds of the present invention, as NR2B antagonists, is determined by their ability to inhibit the binding of NR2B subunit at its receptor sites employing radioactive ligands.
The NR^2B antagonist activity of the cycloalkylene amide compounds is evaluated by using the standard assay procedure described in, for example, J. Pharmacol., 331, pp 117-126, 1997. This method essentially involves determining the concentration of the individual compound required to reduce the amount of radiolabelled NR2B ligands by 50% at their receptor sites, thereby affording characteristic IC50 values for each compound tested. More specifically, the assay is carried out as follows.
Membranes were prepared by homogenization of forebrain of male CD rats weighing between 170˜190 g by using glass-Teflon homogenizer in 0.32 M sucrose at 4° C. The crude nuclear pellet was removed by centrifugation at 1000×g for 10 min, and the supernatant centrifuged at 17000×g for 25 min. The resulting pellet was resuspended in 5 mM Tris acetate pH 7.4 at 4° C. for 10 min to lyse cellular particles and again centrifuged at 17000×g. The resulting pellet (P2 membrane) was washed twice in Tris acetate, resuspended at 5.5 mg protein/ml and stored at −20° C. until use. All the manipulation was done on ice, and stock solution and equipment were kept on ice at all time.
For the saturation assay, receptor saturation was determined by incubating [^3H]-1-[(1S*,2S*)-2-hydroxy-2-(4-hydroxyphenyl)-1-methylethyl]-4-phenylpiperidin-4-ol and 50 μg protein of P2 membrane for 60 minutes at room temperature in a final 100 μl of incubation buffer (50 mM Tris HCl, pH7.4). Total and non-specific bindings (in the presence of 10 μM of unlabeled 1-[(1S*,2S*)-2-hydroxy-2-(4-hydroxyphenyl)-1-methylethyl]-4-phenylpiperidin-4-ol) were determined in a range of [^3H]-1-[(1S*,2S*)-2-hydroxy-2-(4-hydroxyphenyl)-1-methylethyl]-4-phenylpiperidin-4-ol concentrations (0.625 nM to 60 nM).
For the competition assay, test compounds were incubated in duplicate with 5 nM [^3H]-1-[(1S*,2S*)-2-hydroxy-2-(4-hydroxyphenyl)-1-methylethyl]-4-phenylpiperidin-4-ol and 50 μg protein of P2 membrane for 60 minutes at room temperature in a final 100 μl of 50 mM Tris HCl buffer (pH7.4). Nonspecific binding was determined by 10 μM of unlabeled 1-[(1S*,2S*)-2-hydroxy-2-(4-hydroxyphenyl)-1-methylethyl]-4-phenylpiperidin-4-ol (25 μl). The saturation derived KD gained in saturation assay was used for all Ki calculations.
All incubations were terminated by rapid vacuum filtration over 0.2% polyethyleneimine soaked Whatman GF/B glass fibre filter paper using a SKATRON cell harvester followed by three washes with ice-cold filtration buffer (5 mM Tris HCl, pH 7.4.). Receptor-bound radioactivity was quantified by liquid scintillation counting using Packard LS counter. Competition assays were performed by counting Wallac GF/B filters on Betaplate scintillation counter (Wallac).

Human HERG [1] = molecular target: T2, Human HERG (Homo sapiens, UniProt Q12809); test: Human Dofetilide Binding Assay
Experimental: (§1) Human HERG transfected HEK293S cells were prepared and grown in-house. The collected cells were suspended in 50 mM Tris-HCl (pH 7.4 at 4° C.) and homogenized using a hand held Polytron PT 1200 disruptor set at full power for 20 sec on ice. The homogenates were centrifuged at 48,000×g at 4° C. for 20 min. The pellets were then resuspended, homogenized, and centrifuged once more in the same manner. The final pellets were resuspended in an appropriate volume of 50 mM Tris-HCl, 10 mM KCl, 1 mM MgCl2 (pH 7.4 at 4° C.), homogenized, aliquoted and stored at −80° C. until use. An aliquot of membrane fractions was used for protein concentration determination using BCA protein assay kit (PIERCE) and ARVOsx plate reader (Wallac).
(§2) Binding assays were conducted in a total volume of 200 μl in 96-well plates. Twenty μl of test compounds were incubated with 20 μl of [^3H]-dofetilide (Amersham, final 5 nM) and 160 μl of membrane homogenate (25 μg protein) for 60 minutes at room temperature. Nonspecific binding was determined by 10 μM dofetilide at the final concentration. Incubation was terminated by rapid vacuum filtration over 0.5% presoaked GF/B Betaplate filter using Skatron cell harvester with 50 mM Tris-HCl, 10 mM KCl, 1 mM MgCl2, pH 7.4 at 4° C. The filters were dried, put into sample bags and filled with Betaplate Scint. Radioactivity bound to filter was counted with Wallac Betaplate counter.

Human HERG [2] = molecular target: T2, Human HERG
Experimental: as §1, §2

T1 sequence (Q00960 27-1482, other chains not shown): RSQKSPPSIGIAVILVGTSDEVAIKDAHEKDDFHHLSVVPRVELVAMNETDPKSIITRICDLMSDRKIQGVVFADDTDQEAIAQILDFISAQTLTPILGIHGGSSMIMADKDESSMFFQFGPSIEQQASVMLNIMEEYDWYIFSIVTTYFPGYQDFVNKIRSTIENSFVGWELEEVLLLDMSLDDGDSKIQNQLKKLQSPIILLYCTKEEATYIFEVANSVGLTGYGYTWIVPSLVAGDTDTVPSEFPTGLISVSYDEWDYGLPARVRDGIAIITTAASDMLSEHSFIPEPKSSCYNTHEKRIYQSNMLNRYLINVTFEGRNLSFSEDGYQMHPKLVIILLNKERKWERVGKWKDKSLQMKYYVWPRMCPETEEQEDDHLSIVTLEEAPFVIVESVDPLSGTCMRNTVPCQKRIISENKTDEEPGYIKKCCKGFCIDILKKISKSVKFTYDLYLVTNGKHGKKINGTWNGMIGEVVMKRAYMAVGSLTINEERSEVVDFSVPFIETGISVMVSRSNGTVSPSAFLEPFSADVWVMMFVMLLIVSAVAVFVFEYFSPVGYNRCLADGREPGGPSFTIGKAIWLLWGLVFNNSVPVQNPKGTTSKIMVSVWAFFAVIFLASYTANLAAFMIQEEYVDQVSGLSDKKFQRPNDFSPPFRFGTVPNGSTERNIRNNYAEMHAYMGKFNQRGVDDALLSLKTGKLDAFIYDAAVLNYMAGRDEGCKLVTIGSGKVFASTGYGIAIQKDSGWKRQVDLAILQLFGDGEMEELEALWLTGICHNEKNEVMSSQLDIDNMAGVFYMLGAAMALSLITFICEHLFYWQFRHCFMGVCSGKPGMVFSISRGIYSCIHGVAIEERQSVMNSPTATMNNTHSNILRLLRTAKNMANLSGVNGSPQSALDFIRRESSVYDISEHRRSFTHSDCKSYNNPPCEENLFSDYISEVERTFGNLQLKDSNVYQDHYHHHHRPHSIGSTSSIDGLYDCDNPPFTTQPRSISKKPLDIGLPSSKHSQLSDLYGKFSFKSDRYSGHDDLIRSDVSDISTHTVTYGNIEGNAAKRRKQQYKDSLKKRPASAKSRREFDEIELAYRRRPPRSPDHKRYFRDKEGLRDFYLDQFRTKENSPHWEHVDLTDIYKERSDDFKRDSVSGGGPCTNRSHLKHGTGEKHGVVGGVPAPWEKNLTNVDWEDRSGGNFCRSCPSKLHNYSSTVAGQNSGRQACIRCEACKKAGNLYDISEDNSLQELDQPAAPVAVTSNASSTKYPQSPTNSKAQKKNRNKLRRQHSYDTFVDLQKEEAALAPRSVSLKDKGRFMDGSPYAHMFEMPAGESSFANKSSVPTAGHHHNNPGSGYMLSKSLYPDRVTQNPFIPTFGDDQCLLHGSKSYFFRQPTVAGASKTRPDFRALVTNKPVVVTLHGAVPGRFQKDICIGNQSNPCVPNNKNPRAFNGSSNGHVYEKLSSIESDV
T2 sequence (Q12809 whole entry): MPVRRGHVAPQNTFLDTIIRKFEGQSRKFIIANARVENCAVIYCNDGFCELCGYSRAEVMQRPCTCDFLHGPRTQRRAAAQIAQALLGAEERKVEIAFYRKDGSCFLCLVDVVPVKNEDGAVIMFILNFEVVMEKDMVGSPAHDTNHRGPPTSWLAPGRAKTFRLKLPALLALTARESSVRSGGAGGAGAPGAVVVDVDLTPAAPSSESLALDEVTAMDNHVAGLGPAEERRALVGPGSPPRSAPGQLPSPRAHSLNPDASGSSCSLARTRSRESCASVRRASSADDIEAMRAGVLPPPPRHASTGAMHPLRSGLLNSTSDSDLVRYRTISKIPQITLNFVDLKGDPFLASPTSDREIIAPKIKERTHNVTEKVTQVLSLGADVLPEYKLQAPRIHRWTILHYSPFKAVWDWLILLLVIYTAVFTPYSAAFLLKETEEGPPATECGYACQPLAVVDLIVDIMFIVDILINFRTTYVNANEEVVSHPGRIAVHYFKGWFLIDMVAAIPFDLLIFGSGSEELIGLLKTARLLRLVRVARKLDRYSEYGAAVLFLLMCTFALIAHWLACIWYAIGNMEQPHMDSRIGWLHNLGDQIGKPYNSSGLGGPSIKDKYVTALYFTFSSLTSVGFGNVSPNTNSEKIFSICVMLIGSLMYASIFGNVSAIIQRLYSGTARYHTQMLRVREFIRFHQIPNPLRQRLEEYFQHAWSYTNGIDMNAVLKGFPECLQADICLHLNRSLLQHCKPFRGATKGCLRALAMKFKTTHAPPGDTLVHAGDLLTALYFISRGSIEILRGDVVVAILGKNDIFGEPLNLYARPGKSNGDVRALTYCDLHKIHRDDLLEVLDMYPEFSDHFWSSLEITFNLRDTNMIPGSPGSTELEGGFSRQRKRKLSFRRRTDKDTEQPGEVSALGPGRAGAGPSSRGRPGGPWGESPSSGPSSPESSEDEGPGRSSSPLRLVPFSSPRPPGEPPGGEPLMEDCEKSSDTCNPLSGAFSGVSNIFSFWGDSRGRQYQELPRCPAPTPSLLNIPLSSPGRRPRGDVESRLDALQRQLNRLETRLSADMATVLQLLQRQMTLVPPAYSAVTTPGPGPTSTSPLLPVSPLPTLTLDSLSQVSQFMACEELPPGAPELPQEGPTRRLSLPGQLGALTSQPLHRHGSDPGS
HERG potassium channel, sequence (Q12809 whole entry): as above

O=C(NCC1CCN(CCCc2ccccc2)CC1)c1ccc(O)cc1 [Compound (i)]
IC50 (HERG potassium channel): < 3000 nM

O=C(NC[C@]1(O)CC[C@H](COCc2ccccc2F)CC1)c1ccc(O)cc1 [Example 22, N-[(trans-4-{[(2-Fluorobenzyl)oxy]methyl}-1-hydroxycyclohexyl)methyl]-4-hydroxybenzamide]
melting point: 174.3 °C | IC50 (NR2B receptor): 11 nM | IC50 (Human HERG [1]): > 100000 nM

O=C(NC[C@]1(O)CC[C@H](COCc2cccc(F)c2)CC1)c1ccc(O)cc1 [Example 23, N-[(trans-4-{[(3-Fluorobenzyl)oxy]methyl}-1-hydroxycyclohexyl)methyl]-4-hydroxybenzamide]
melting point: 167.6 °C | IC50 (NR2B receptor): 28.6 nM | IC50 (Human HERG [1]): > 100000 nM

O=C(NC[C@]1(O)CC[C@H](COCc2ccc(F)cc2)CC1)c1ccc(O)cc1 [Example 24, N-[(trans-4-{[(4-Fluorobenzyl)oxy]methyl}-1-hydroxycyclohexyl)methyl]-4-hydroxybenzamide]
melting point: 167.6 °C | IC50 (NR2B receptor): 21.8 nM | IC50 (Human HERG [1]): 97000 nM

O=C(NC[C@]1(O)CC[C@@H](Oc2ccc(Cl)cc2)CC1)c1ccc(O)c(F)c1 [Example 34, N-{[cis-4-(4-Chlorophenoxy)-1-hydroxycyclohexyl]methyl}-3-fluoro-4-hydroxybenzamide]
melting point: 168.1 °C | IC50 (NR2B receptor): 14.7 nM | IC50 (Human HERG [1]): > 30000 nM

O=C(NC[C@]1(O)CC[C@H](OCc2ccccc2F)CC1)c1ccc(O)cc1 [Example 48, N-({trans-4-[(2-Fluorobenzyl)oxy]-1-hydroxycyclohexyl}methyl)-4-hydroxybenzamide]
melting point: 162.9 °C | IC50 (NR2B receptor): 25.5 nM | IC50 (Human HERG [1]): > 100000 nM

O=C(NCC1(O)CCC(COCc2cccc(F)c2)CC1)c1ccc(O)c(F)c1 (stereo not drawn) [Example 50, 3-Fluoro-N-[(trans-4-{[(3-fluorobenzyl)oxy]methyl}-1-1-hydroxycyclohexyl)methyl]-hydroxybenzamide]
IC50 (NR2B receptor): 27.5 nM | IC50 (Human HERG [2]): > 100000 nM

O=C(NC[C@]1(O)CC[C@H](CCOc2ccccc2F)CC1)c1cn[nH]c1 [Example 56, N-({trans-4-[2-(2-Fluorophenoxy)ethyl]-1-hydroxycyclohexyl}methyl)-1H-pyrazole-4-carboxamide]
melting point: 175.1 °C | IC50 (NR2B receptor): 30.2 nM | IC50 (Human HERG [1]): > 100000 nM

O=C(NC[C@]1(O)CC[C@H](COCc2ccccc2)CC1)c1ccc(O)c(F)c1 [Example 60, N-({trans-4-[(Benzyloxy)methyl]-1-hydroxycyclohexyl}methyl)-3-fluoro-4-hydoxybenzamide]
melting point: 162.5 °C | IC50 (NR2B receptor): 18.2 nM | IC50 (Human HERG [1]): > 100000 nM

O=C(NC[C@]1(O)CC[C@H](COc2ccccc2)CC1)c1ccc(O)c(F)c1 [Example 62, 3-Fluoro-4-hydroxy-N-{[trans-1-hydroxy-4-(phenoxymethyl)cyclohexyl]methyl}benzamide]
melting point: 183.5 °C | IC50 (NR2B receptor): 9.1 nM | IC50 (Human HERG [1]): > 30000 nM

O=C(NC[C@]1(O)CC[C@H](CCOc2ccccc2)CC1)c1ccc(O)c(F)c1 [Example 63, 3-Fluoro-4-hydroxy-N-{[trans-1-hydroxy-4-(2-phenoxyethyl)cyclohexyl]methyl}benzamide]
melting point: 164 °C | IC50 (NR2B receptor): 6.2 nM | IC50 (Human HERG [1]): > 30000 nM

O=C(NC[C@]1(O)CC[C@H](COCc2ccc(F)cc2)CC1)c1ccc(O)c(F)c1 [Example 64, 3-Fluoro-N-[(trans-4-{[(4-fluorobenzyl)oxy]methyl}-1-hydroxycyclohexyl)methyl]-4-hydroxybenzamide]
melting point: 155.9 °C | IC50 (NR2B receptor): 26.5 nM | IC50 (Human HERG [1]): > 100000 nM

O=C(NC[C@]1(O)CC[C@H](COc2ccc(F)cc2)CC1)c1ccc(O)c(F)c1 [Example 66, 3-Fluoro-N-({trans-4-[(4-fluorophenoxy)methyl]-1-hydroxycyclohexyl}methyl)-4-hydroxybenzamide]
melting point: 181.6 °C | IC50 (NR2B receptor): 12.6 nM | IC50 (Human HERG [1]): > 100000 nM

Cc1ccc(OC[C@H]2CC[C@@](O)(CNC(=O)c3ccc(O)cc3)CC2)nc1 [Example 67, 4-Hydroxy-N-[(trans-1-hydroxy-4-{[(5-methylpyridin-2-yl)oxy]methyl}cyclohexyl)methyl]benzamide]
melting point: 196.2 °C | IC50 (NR2B receptor): 16.9 nM | IC50 (Human HERG [1]): > 30000 nM

O=C(NC[C@H]1CC[C@@H](OCCc2ccccc2)CC1)c1ccc(O)nc1 [Example 71, 6-Hydroxy-N-{[cis-4-(2-phenethoxy)cyclohexyl]methyl}nicotinamide]
IC50 (NR2B receptor): 7.1 nM | IC50 (Human HERG [2]): > 100000 nM

O=C(NC[C@H]1CC[C@@H](COc2ccccc2)CC1)c1cn[nH]c1 [Example 73, N-{[cis-4-(Phenoxymethyl)cyclohexyl]methyl}-1H-pyrazole-4-carboxamide]
melting point: 150.1 °C | IC50 (NR2B receptor): 15.4 nM | IC50 (Human HERG [1]): > 30000 nM
